According to ChEMBL document CHEMBL4715901, “Degradation of Signal Transducer and Activator of Transcription Proteins in Cancer Therapeutics” (ACS Med Chem Lett, 2021):

Legend:
[1] = biological target: Protein cereblon/Signal transducer and activator of transcription 1-alpha/beta (Homo sapiens, UniProt P42224+Q96SW2); assay: Protac activity at E3 ubiquitin ligase/STAT1 in human MOLM-16 cells assessed as degradation of STAT1 incubated for 4 hrs by fluorescent immunoblotting analysis; assay type: cell-based
[2] = biological target: Protein cereblon/Signal transducer and activator of transcription 3 (Homo sapiens, UniProt P40763+Q96SW2); assay: Protac activity at E3 ubiquitin ligase/STAT3 in human MOLM-16 cells assessed as degradation of STAT3 incubated for 4 hrs by fluorescent immunoblotting analysis; assay type: cell-based
Chain of Protein cereblon/Signal transducer and activator of transcription 3 (P40763 whole entry): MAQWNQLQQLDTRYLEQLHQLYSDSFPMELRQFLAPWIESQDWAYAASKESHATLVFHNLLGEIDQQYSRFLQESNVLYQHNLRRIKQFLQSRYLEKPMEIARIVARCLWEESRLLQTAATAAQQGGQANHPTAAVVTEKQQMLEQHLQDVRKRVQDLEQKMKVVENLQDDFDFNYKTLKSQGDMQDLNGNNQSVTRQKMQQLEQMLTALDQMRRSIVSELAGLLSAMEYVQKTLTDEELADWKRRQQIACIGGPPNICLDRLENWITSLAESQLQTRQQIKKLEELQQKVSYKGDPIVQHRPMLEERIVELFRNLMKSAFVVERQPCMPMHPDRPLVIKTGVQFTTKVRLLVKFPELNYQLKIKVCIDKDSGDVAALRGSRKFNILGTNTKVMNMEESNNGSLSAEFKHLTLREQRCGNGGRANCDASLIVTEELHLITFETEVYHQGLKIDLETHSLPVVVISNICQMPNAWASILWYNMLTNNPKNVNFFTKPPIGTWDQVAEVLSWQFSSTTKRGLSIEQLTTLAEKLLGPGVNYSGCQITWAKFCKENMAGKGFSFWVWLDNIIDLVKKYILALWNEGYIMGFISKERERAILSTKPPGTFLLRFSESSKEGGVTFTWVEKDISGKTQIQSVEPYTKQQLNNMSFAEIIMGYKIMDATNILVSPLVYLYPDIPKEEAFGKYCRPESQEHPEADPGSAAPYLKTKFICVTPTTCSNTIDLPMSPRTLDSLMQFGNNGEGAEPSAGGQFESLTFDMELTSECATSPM
Chain of Protein cereblon/Signal transducer and activator of transcription 3 (Q96SW2 whole entry): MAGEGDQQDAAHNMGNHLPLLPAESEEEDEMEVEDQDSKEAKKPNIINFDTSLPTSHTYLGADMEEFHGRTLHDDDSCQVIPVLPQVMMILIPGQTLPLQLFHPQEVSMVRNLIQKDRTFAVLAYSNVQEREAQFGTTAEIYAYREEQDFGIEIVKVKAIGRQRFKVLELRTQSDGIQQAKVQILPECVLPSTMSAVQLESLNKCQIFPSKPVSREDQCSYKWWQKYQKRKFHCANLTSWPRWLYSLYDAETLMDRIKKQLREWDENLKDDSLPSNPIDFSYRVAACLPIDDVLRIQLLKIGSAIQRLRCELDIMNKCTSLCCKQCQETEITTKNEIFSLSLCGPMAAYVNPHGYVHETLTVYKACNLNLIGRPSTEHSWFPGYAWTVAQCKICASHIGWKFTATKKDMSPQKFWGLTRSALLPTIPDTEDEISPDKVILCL

Chain of Protein cereblon/Signal transducer and activator of transcription 1-alpha/beta (P42224 whole entry): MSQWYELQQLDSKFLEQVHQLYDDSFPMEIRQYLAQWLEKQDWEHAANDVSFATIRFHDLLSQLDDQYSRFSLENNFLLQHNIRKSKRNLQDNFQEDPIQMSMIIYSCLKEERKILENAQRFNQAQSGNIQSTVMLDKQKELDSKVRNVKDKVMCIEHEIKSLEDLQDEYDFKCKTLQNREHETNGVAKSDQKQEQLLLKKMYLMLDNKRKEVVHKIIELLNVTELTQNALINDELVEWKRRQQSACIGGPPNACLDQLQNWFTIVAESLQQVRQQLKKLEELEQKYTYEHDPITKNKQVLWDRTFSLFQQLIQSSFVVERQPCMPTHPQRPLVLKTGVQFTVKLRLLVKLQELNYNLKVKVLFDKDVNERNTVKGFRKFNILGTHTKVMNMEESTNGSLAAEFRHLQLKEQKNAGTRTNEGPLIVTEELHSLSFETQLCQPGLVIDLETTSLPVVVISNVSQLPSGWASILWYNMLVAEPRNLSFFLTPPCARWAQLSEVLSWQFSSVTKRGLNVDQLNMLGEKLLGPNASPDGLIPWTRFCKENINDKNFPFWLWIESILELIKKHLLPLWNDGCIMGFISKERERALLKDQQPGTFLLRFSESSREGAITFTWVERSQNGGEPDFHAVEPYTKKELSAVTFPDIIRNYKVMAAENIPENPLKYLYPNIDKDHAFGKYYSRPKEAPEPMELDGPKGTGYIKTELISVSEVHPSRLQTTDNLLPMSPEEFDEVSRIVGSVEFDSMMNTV
Chain of Protein cereblon/Signal transducer and activator of transcription 1-alpha/beta (Q96SW2 whole entry): as the sequence (Q96SW2 whole entry) above

| SMILES | DC50 [1] [nM] | DC50 [2] [nM] |
| --- | --- | --- |
| CC(C)(C)c1ccc(C[C@H](NC(=O)[C@H](CCC(N)=O)NC(=O)[C@@H]2CC[C@@H]3CCN(CC(F)F)C[C@H](NC(=O)c4cc5cc(C(F)(F)P(=O)(O)O)ccc5s4)C(=O)N32)C(=O)N2CCC(CCC#Cc3cccc4c3CN(C3CCC(=O)NC3=O)C4=O)CC2)cc1 (some centres not stated) | < 250 | < 250 |
| CCN1CC[C@H]2CC[C@@H](C(=O)N[C@@H](CCC(N)=O)C(=O)N[C@@H](Cc3ccc(NS(=O)(=O)c4ccc(C)cc4)cc3)C(=O)N3CCC(CCC#Cc4cccc5c4CN(C4CCC(=O)NC4=O)C5=O)CC3)N2C(=O)[C@@H](NC(=O)c2cc3cc(C(F)(F)P(=O)(O)O)ccc3s2)C1 (some centres not stated) | 250 | < 250 |
| CCN1CC[C@H]2CC[C@@H](C(=O)N[C@@H](CCC(N)=O)C(=O)N[C@@H](Cc3ccc(S(=O)(=O)c4ccccc4)cc3)C(=O)N3CCC(CCC#Cc4cccc5c4CN(C4CCC(=O)NC4=O)C5=O)CC3)N2C(=O)[C@@H](NC(=O)c2cc3cc(C(F)(F)P(=O)(O)O)ccc3s2)C1 (some centres not stated) | 250 | < 250 |
| COC(=O)N1CC[C@H]2CC[C@@H](C(=O)N[C@@H](CCC(N)=O)C(=O)N[C@@H](Cc3ccc(C(C)(C)C)cc3)C(=O)N3CCC(CCC#Cc4cccc5c4CN(C4CCC(=O)NC4=O)C5=O)CC3)N2C(=O)[C@@H](NC(=O)c2cc3cc(C(F)(F)P(=O)(O)O)ccc3s2)C1 (some centres not stated) | 250 | < 250 |
| CCN1CC[C@H]2CC[C@@H](C(=O)N[C@@H](CCC(N)=O)C(=O)N[C@@H](Cc3ccc(S(=O)(=O)C4CC4)cc3)C(=O)N3CCC(CCC#Cc4cccc5c4CN(C4CCC(=O)NC4=O)C5=O)CC3)N2C(=O)[C@@H](NC(=O)c2cc3cc(C(F)(F)P(=O)(O)O)ccc3s2)C1 (some centres not stated) | 500 | < 250 |
| CCN1CC[C@H]2CC[C@@H](C(=O)N[C@@H](CNC(N)=O)C(=O)N[C@@H](Cc3ccc(C(C)(C)C)cc3)C(=O)N3CCC(CCC#Cc4cccc5c4CN(C4CCC(=O)NC4=O)C5=O)CC3)N2C(=O)[C@@H](NC(=O)c2cc3cc(C(F)(F)P(=O)(O)O)ccc3s2)C1 (some centres not stated) | > 1000 | < 250 |
